Measured values: patent publication US20180312493A1, “Antibiotic Compounds, Pharmaceutical Formulations Thereof And Methods And Uses Therefor” (Simon Fraser University, priority 2015, published 2018)
pIC50: −log10 of the molar value. Converted amounts (≈) assume the structure as drawn.

Key:
MRSA Pyk = biological target: T1, MRSA Pyk (Staphylococcus aureus, UniProt Q6GG09); assay: MRSA pyruvate kinase (PK) activity, continuous LDH-coupled assay; format: biochemical, methicillin resistant S. aureus (MRSA252)
T1 construct: made in house; host or cells: E. coli BL-21 (DE3)
In short: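 His-tagged MRSA PK (strain Sanger 252) and human PK isoforms expressed in E. coli BL-21 (DE3) and Ni-NTA purified, used at 15 nM in an LDH-coupled assay following NADH oxidation at 340 nm, 30° C, up to 5 min, ≤1% DMSO. IC50 from four-parameter variable-slope fit; Ki with PEP 2-20 mM, ADP fixed 2 mM, inhibitor 0-400 nM.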

MRSA (ATCC BAA-1762) = assay: In vitro susceptibility, broth microdilution (MIC); format: cell-based, methicillin resistant S. aureus; conditions: Staphylococcus aureus; MRSA ATCC BAA-1762; read-out: Antimicrobial activity (MIC) MRSA ATCC BAA1762
Source text: (§1) Epidemic methicillin resistant S. aureus (MRSA) strain sequenced at the Sanger Centre (MRSA252, NRS71) was obtained from NARSA (Network on Antimicrobial Resistance in S. aureus). Methicillin sensitive S. aureus (ATCC 29213 and 25923), methicillin resistant S. aureus (ATCC BAA-1762), and Salmonella typhimurium (ATCC BAA-185) were obtained from ATCC, The Global Bioresource Center. Acinetobacter baumannii (ATCC 19606 and ATCC 17978), Klebsiella pneumonia (C238), vancomycin resistant Enterococci #2 (2010A) (VRE#2), MRSA (USA400, MW2) and Pseudomonas aeruginosa (PA0-1) were obtained from the laboratory of Dr B. B. Finlay at the University of British Columbia (Vancouver, Canada).
(§2) The antimicrobial activities of PK inhibitor candidates were determined using the 96-well microtiter standard 2-fold serial broth microdilution method as described by CLSI (formerly NCCLS) with the various gram-positive and gram-negative bacteria species mentioned above. Bacteria from a single colony were grown, overnight in either BHI Broth (VRE), mueller hinton broth (S. aureus 29213; MRSA USA400, A. baumannii 19606, MRSA BAA-1762) or L-broth (P. aeruginosa, S. typhimurium, K. pneumonia and A. baumannii 17978). Each compound was prepared in DMSO with 2-fold serial dilutions to give a final concentration of, 0.031 to 64 μg/ml. 10 μl of the compound solution was then added, in duplicate, to either, 190 μl of cation adjusted mueller hinton broth (CAMHB) or 190 μl CAMHB containing ˜2.5×10^5 CFU/ml of bacteria (final compound concentration 0.031 to 64 μg/ml). Culture plates were incubated for 18-24 h at 37° C., and optical density at 600 nm (OD600) was measured using a Benchmark Plus™ microplate spectrophotometer (Bio-Rad™). The absorbance control values for the series containing CAMHB and inhibitor were subtracted as background from the corresponding infected wells. Minimal inhibitory concentration (MIC) was defined as the lowest concentration of test compound leading to complete inhibition of cell growth in relation to compound-free control wells as determined by optical density. Vancomycin, methicillin and ciprofloxicin were used as reference compounds. All assays were run in triplicate or duplicate. Experiments were replicated at least twice to verify reproducibility using the above conditions.

VRE#2 (2010A) = assay: In vitro susceptibility, broth microdilution (MIC); format: cell-based, vancomycin resistant Enterococci; conditions: VRE#2 (2010A); read-out: Antimicrobial activity (MIC) VRE#2
Source text: as §1, §2

S. aureus (ATCC29213) = assay: In vitro susceptibility, broth microdilution (MIC); format: cell-based; conditions: Staphylococcus aureus; S. aureus ATCC29213; 18-24 h, 37 C; read-out: Antimicrobial activity (MIC) S. aureus ATCC29213
In short: (§3)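 CLSI 2-fold serial broth microdilution; K. pneumoniae C238 grown in L-broth, S. aureus ATCC 29213 in Mueller Hinton broth, plates incubated 18–24 h at 37 °C. MIC taken as lowest concentration giving complete growth inhibition by OD600 versus compound-free wells, background-subtracted.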

[1] = tested on: A. baumannii (ATCC 19606); assay: In vitro susceptibility, broth microdilution (MIC); format: cell-based; conditions: Acinetobacter baumannii, ATCC19606; A. baumannii ATCC 19606 (values without asterisk); read-out: Antimicrobial activity (MIC) A. baumannii
Source text: as §1, §2

K. pneumoniae (C238) = assay: In vitro susceptibility, broth microdilution (MIC); format: cell-based; conditions: Klebsiella pneumoniae; K. pneumoniae (C238); read-out: Antimicrobial activity (MIC) K. pneumoniae
In short: as §3

SMILES	MIC (MRSA (ATCC BAA-1762))	MIC (VRE#2 (2010A))	MIC (S. aureus (ATCC29213))	MIC [1]	pIC50 (MRSA Pyk)	MIC (K. pneumoniae (C238))
N.O=C(O)CON=C(c1c(-c2cc3cc(Cl)ccc3[nH]2)[nH]c2cc(Br)ccc12)C(F)(F)F (racemic) [Compound 219, Ammonium 2-(((1-(6-bromo-5′-chloro-1H,1′H-[2,2′-biindol]-3-yl)-2,2,2-trifluoroethylidene)amino)oxy)acetate]	8 µg/mL	4 µg/mL	8 µg/mL	> 64 µg/mL	> 7.00	
CN(C)CCON=C(c1c(-c2cc3cc(Cl)ccc3[nH]2)[nH]c2cc(Br)ccc12)C(F)(F)F (racemic) [Compound 220, 1-(6-Bromo-5′-chloro-1H,1′H-[2,2′-biindol]-3-yl)-2,2,2-trifluoroethan-1-one O-(2-(dimethylamino)ethyl)oxime]	2 µg/mL (≈ 3.79 µM)	2 µg/mL (≈ 3.79 µM)	2 µg/mL (≈ 3.79 µM)	> 64 µg/mL	> 7.00	
COC(=O)C[N+](C)(C)CCON=C(c1c(-c2cc3cc(Cl)ccc3[nH]2)[nH]c2cc(Br)ccc12)C(F)(F)F (racemic) [Compound 222, N-(2-(((1-(6-Bromo-5′-chloro-1H,1′H-[2,2′-biindol]-3-yl)-2,2,2-trifluoroethylidene)amino)oxy)ethyl)-2-methoxy-N,N-dimethyl-2-oxoethan-1-aminium Bromide]	2 µg/mL	4 µg/mL	2 µg/mL	32 µg/mL	> 7.00	
CN(Cc1ccccc1)c1c(CCc2ccc(Cl)cc2)[nH]c2cc(Br)ccc12 [Compound 98, N-benzyl-6-bromo-2-(4-chlorophenethyl)-N-methyl-1H-indol-3-amine]			32 µg/mL (≈ 70.5 µM)		6.00 to 7.00	> 64 µg/mL
COCCNC(=O)CCCC(=O)c1c(-c2cc3cc(Cl)ccc3[nH]2)[nH]c2cc(Br)ccc12 [Compound 103, 5-(6-bromo-5′-chloro-1H,1′H-[2,2′-biindol]-3-yl)-N-(2-methoxyethyl)-5-oxopentanamide]			> 64 µg/mL		> 7.00	> 64 µg/mL
O=C(CCCC(=O)c1c(-c2cc3cc(Cl)ccc3[nH]2)[nH]c2cc(Br)ccc12)NCCO [Compound 104, 5-(6-bromo-5′-chloro-1H,1′H-[2,2′-biindol]-3-yl)-N-(2-hydroxyethyl)-5-oxopentanamide]			> 64 µg/mL		> 7.00	> 64 µg/mL
O=C(CCCC(=O)c1c(-c2cc3cc(Cl)ccc3[nH]2)[nH]c2cc(Br)ccc12)Nc1ncn[nH]1 [Compound 105, 5-(6-bromo-5′-chloro-1H,1′H-[2,2′-biindol]-3-yl)-5-oxo-N-(1H-1,2,4-triazol-5-yl)pentanamide]			> 64 µg/mL		> 7.00	> 64 µg/mL
Cc1nc2c(cc1-c1ccc(Cl)cc1)[nH]c1cc(Br)ccc12 [Compound 113, 7-bromo-3-(4-chlorophenyl)-2-methyl-5H-pyrido[3,2-b]indole]			> 64 µg/mL		> 7.00	> 64 µg/mL
CN1CCCN(CCCCNC(=O)c2c(-c3cc4cc(Cl)ccc4[nH]3)[nH]c3cc(Br)ccc23)CC1 [Compound 117, 6-Bromo-5′-chloro-N-(4-(4-methyl-1,4-diazepan-1-yl)butyl)-1H,1′H-[2,2′-biindole]-3-carboxamide]	8 µg/mL (≈ 14.4 µM)	8 µg/mL (≈ 14.4 µM)	8 µg/mL (≈ 14.4 µM)	32 µg/mL (≈ 57.5 µM)	> 7.00	
CN1CCCN(CCCNC(=O)c2c(-c3cc4cc(Cl)ccc4[nH]3)[nH]c3cc(Br)ccc23)CC1 [Compound 118, 6-Bromo-5′-chloro-N-(3-(4-methyl-1,4-diazepan-1-yl)propyl)-1H,1′H-[2,2′-biindole]-3-carboxamide]	16 µg/mL (≈ 29.5 µM)	8 µg/mL (≈ 14.7 µM)	16 µg/mL (≈ 29.5 µM)	32 µg/mL (≈ 58.9 µM)	> 7.00	
CC(C)(C)NCCNC(=O)COc1cc2[nH]c(-c3cc4ccc(Br)cc4[nH]3)cc2cc1Cl [Compound 193, 2-((6′-Bromo-5-chloro-1H,1′H-[2,2′-biindol]-6-yl)oxy)-N-(2-(tert-butylamino)ethyl)acetamide]			> 64 µg/mL	> 64 µg/mL	> 7.00	

Continued, in another order:

MIC (MRSA (ATCC BAA-1762))	MIC (VRE#2 (2010A))	MIC (S. aureus (ATCC29213))	MIC [1]	SMILES	pIC50 (MRSA Pyk)	MIC (K. pneumoniae (C238))
	> 64 µg/mL	> 64 µg/mL	> 64 µg/mL	NC(=O)N1CCCN(CCNC(=O)c2c(-c3cc4cc(Cl)ccc4[nH]3)[nH]c3cc(Br)ccc23)CC1 [Compound 128, 6-bromo-N-(2-(4-carbamoyl-1,4-diazepan-1-yl)ethyl)-5′-chloro-1H,1′H-2,2′-biindole-3-carboxamide]		
1 µg/mL (≈ 2.82 µM)		2 µg/mL (≈ 5.65 µM)	> 64 µg/mL	O=C(Nc1nc2cc(Br)ccc2s1)NC1CCCCC1 [Compound 159, 1-(5-bromobenzo[d]thiazol-2-yl)-3-cyclohexylurea]		
4 µg/mL (≈ 11 µM)	8 µg/mL (≈ 22 µM)	4 µg/mL (≈ 11 µM)	> 64 µg/mL	Nc1ccc(NC(=O)Nc2nc3cc(Br)ccc3s2)cc1 [Compound 160, 1-(4-aminophenyl)-3-(5-bromobenzo[d]thiazol-2-yl)urea]		
8 µg/mL (≈ 17.8 µM)	16 µg/mL (≈ 35.7 µM)	16 µg/mL (≈ 35.7 µM)	> 64 µg/mL	CN(C)CC(=O)Nc1ccc(NC(=O)Nc2nc3cc(Br)ccc3s2)cc1 [Compound 161, N-(4-(3-(5-bromobenzo[d]thiazol-2-yl)ureido)phenyl)-2-(dimethylamino)acetamide]		
0.5 µg/mL (≈ 1.55 µM)	0.5 µg/mL (≈ 1.55 µM)	1 µg/mL (≈ 3.11 µM)	> 64 µg/mL	O=C(Nc1ccc(Cl)cc1)Nc1nc2cc(F)ccc2s1 [Compound 166, 1-(4-chlorophenyl)-3-(5-fluorobenzo[d]thiazol-2-yl)urea]		
1 µg/mL (≈ 2.53 µM)	16 µg/mL (≈ 40.4 µM)	1 µg/mL (≈ 2.53 µM)	> 64 µg/mL	O=C(Nc1ccc(Cl)cc1)Nc1nc2cc(Oc3ccccc3)ccc2s1 [Compound 168, 1-(4-chlorophenyl)-3-(5-phenoxybenzo[d]thiazol-2-yl)urea]		
0.5 µg/mL (≈ 1.34 µM)	2 µg/mL (≈ 5.38 µM)	1 µg/mL (≈ 2.69 µM)	> 64 µg/mL	O=C(Nc1ccc(Cl)cc1)Nc1nc2cc(C(F)(F)F)ccc2s1 [Compound 169, 1-(4-chlorophenyl)-3-(5-(trifluoromethyl)benzo[d]thiazol-2-yl)urea]		
0.5 µg/mL (≈ 1.48 µM)	1 µg/mL (≈ 2.96 µM)	0.5 µg/mL (≈ 1.48 µM)	> 64 µg/mL	O=C(Nc1ccc(Cl)cc1)Nc1nc2cc(Cl)ccc2s1 [Compound 172, 1-(5-chlorobenzo[d]thiazol-2-yl)-3-(4-chlorophenyl)urea]		
16 µg/mL (≈ 48.7 µM)	32 µg/mL (≈ 97.5 µM)	16 µg/mL (≈ 48.7 µM)	> 64 µg/mL	CC(C)(C)NC(=O)Nc1nc2cc(Br)ccc2s1 [Compound 173, 1-(5-bromobenzo[d]thiazol-2-yl)-3-(tert-butyl)urea]		
1 µg/mL (≈ 2.72 µM)	1 µg/mL (≈ 2.72 µM)	1 µg/mL (≈ 2.72 µM)	> 64 µg/mL	O=C(Nc1nc2cc(Br)ccc2s1)NC1CCCCCC1 [Compound 174, 1-(5-bromobenzo[d]thiazol-2-yl)-3-cycloheptylurea]		
8 µg/mL (≈ 26.7 µM)	16 µg/mL (≈ 53.3 µM)	8 µg/mL (≈ 26.7 µM)	> 64 µg/mL	CCNC(=O)Nc1nc2cc(Br)ccc2s1 [Compound 176, 1-(5-bromobenzo[d]thiazol-2-yl)-3-ethylurea]		
		> 64 µg/mL	> 64 µg/mL	NC(=O)Cn1c(-c2cc3ccc(Br)cc3[nH]2)nc2cc(Cl)c(Cl)cc21 [Compound 215, 2-(2-(6-Bromo-1H-indol-2-yl)-5,6-dichloro-1H-benzo[d]imidazol-1-yl)acetamide]		
